Assay results: US6075013A, “Modified low molecular weight heparin that inhibits clot associated coagulation factors” (Hamilton Civic Hospitals Research Development Inc., priority 1998, dated 2000)

Experiments:
injured rabbit aorta = experiment: rabbit arterial thrombosis prevention model; type: in vivo; conditions: over the doses tested
Method: The arterial thrombosis prevention model was modified so that both efficacy and safety could be assessed in the same animal. […] The four compounds were compared at three dosage levels. Each compound was administered as a bolus and infusion for 90 minutes. The doses listed in the following figures represent the bolus and infusion/60 minutes, administered for 90 minutes. The doses for heparin are shown as units/Kg, for LMWH and V21 as mg/Kg and for hirudin as mg/Kg. […] Thus, the specific activity of LMWH is 100 anti-Xa/mg and 30 anti-IIa units/mg. […] The anticoagulants were compared in the following dosages. Heparin 50 units/Kg and 75 unit/Kg; LMWH and V21 0.5, 1.0 and 1.5 mg/Kg; Hirudin 0.1/0.1, 0.1/0.2 and 0.1/0.3 mg/Kg.
FIG. 11 compares the efficacy of the four anticoagulants using cumulative time that the aorta remained patent over the 90 minutes of observation as the outcome measure of efficacy. One hundred percent accumulated patency reflects complete patency and 0% cumulative patency reflects immediate and sustained thrombotic occlusion.

washed plasma clot = experiment: procoagulant activity of washed plasma clot in unanticoagulated whole blood; type: biochemical; conditions: washed plasma clot incubated in unanticoagulated whole blood
Source text: There is mounting evidence that both fibrin-bound thrombin and platelet-bound factor Xa contribute to the intense procoagulant activity of thrombi. […] Development of these agents requires an understanding of the mechanisms by which fibrin-bound IIa and platelet-bound factor Xa are protected from inactivation by heparin, LMWH and hirudin.

[1] = target: thrombin (IIa) binding to fibrin (Homo sapiens, UniProt P00734); experiment: effect on thrombin (IIa) binding to fibrin / fibrin monomer-sepharose; conditions: presence of 250 nM heparin
Method: FIGS. 1A and 1B illustrate the effects of varying heparin concentrations on thrombin (IIa) binding to fibrin (A) and on thrombin's apparent affinity for fibrin (B).
FIG. 3 illustrates the effect of hirugen (Hg), prothrombin fragment 2 (F2) or antibody against exosite 2 (Wab) on thrombin (IIa) binding to fibrin monomersepharose in the absence or presence of 250 nM heparin.
FIG. 9 illustrates the effect of unfractionated heparin (UFH) and a 6,000 Da heparin fraction (MLMWH) on thrombin (IIa) binding to fibrin.
When heparin is present, the amount of thrombin that binds to fibrin changes, as does the mode of thrombin interaction with fibrin.
The mode of thrombin binding also changes in the presence of heparin. Whereas thrombin binds to fibrin via exosite 1 in the absence of heparin, enhanced α-thrombin binding seen in the presence of heparin is mediated by exosite 2 because heparin augments the binding of γ-thrombin to the same extent as α-thrombin but has little effect on the binding of RA-thrombin (FIG. 2). Furthermore, excess α-thrombin bound in the presence of heparin is displaced with an antibody to exosite 2 or with prothrombin fragment 2 (F2) which, like heparin, also binds to exosite 2 (Arni, R. K., et al. (1993) Biochemistry 32:4727-4737). […]

hirudin
response of the model to the antithrombotic effects (injured rabbit aorta): very responsive | block of the clot's ability to accelerate coagulation (washed plasma clot): cannot be blocked

TAP: tick anticoagulant peptide, a direct inhibitor of factor Xa (YNRLCIKPRDWIDECDSNEGGERAYFRNGKGGCDSFWICPEDHTGADYYSSYRDCFNACI; UniProt P17726 1-60, looked up)
block of the clot's ability to accelerate coagulation (washed plasma clot): cannot be blocked

B1: prothrombin fragment 2 (F2): prothrombin fragment 2, binds to exosite 2 of thrombin (protein, UniProt P00734 199-327, looked up)
Activation peptide fragment 2: SEGSSVNLSPPLEQCVPDRGQQYQGRLAVTTHGLPCLAWASAQAKALSKHQDFNSAVQLVENFCRNPDGDEEGVWCYVAGKPGDFGYCDLNYCEEAVEEETGDGLDEDSDRAIEGRTATSEYQTFFNPR
modifications: Activation peptide fragment 2
effect on heparin-dependent binding of thrombin to fibrin [1]: displaced
